These results are taken from US12479847B2 (DANA-FARBER CANCER INSTITUTE, INC., priority 2019, dated 2025).

Structures are written as SMILES.

Holding throughout (experiment): KINOMEscan (ScanMAX) kinase profiling
Common to all, as to assay type: binding

For assay [1], the target named is T1, panel of 468 kinases (Homo sapiens, UniProt Q86UE8).
T1 construct: purchased KINOMEscan (ScanMAX) service
As to conditions: TLK2; 1 μM; read-out: % control.

For assay [2], the target named is T2, panel of 468 kinases (Homo sapiens, UniProt Q09013).
T2 construct: purchased KINOMEscan (ScanMAX) service
T2 sequence (Q09013 1-629): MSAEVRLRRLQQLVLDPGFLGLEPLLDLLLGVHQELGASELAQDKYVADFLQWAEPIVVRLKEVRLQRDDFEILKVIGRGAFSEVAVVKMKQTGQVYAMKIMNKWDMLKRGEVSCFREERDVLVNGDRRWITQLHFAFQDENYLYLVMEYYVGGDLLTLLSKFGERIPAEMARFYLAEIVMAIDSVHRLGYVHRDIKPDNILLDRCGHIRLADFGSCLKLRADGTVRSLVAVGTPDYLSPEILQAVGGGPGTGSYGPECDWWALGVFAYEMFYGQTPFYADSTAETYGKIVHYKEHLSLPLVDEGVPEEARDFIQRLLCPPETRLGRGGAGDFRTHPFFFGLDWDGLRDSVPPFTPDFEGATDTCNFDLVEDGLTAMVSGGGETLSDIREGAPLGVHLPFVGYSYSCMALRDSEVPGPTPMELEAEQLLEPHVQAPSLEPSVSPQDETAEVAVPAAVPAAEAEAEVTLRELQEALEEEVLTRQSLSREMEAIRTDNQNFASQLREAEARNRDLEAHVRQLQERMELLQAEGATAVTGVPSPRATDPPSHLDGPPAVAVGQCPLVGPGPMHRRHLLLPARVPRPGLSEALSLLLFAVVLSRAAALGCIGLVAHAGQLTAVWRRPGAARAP
As to conditions: DMPK; 1 μM; read-out: % control.

Assay [3] concerns the target T3, panel of 468 kinases (Homo sapiens, UniProt P45983).
T3 construct: purchased KINOMEscan (ScanMAX) service
Conditions: JNK1; 1 μM; read-out: % control.

The target of assay [4] is T4, panel of 468 kinases (Homo sapiens, UniProt Q08881).
T4 construct: purchased KINOMEscan (ScanMAX) service
T4 sequence (Q08881 1-620): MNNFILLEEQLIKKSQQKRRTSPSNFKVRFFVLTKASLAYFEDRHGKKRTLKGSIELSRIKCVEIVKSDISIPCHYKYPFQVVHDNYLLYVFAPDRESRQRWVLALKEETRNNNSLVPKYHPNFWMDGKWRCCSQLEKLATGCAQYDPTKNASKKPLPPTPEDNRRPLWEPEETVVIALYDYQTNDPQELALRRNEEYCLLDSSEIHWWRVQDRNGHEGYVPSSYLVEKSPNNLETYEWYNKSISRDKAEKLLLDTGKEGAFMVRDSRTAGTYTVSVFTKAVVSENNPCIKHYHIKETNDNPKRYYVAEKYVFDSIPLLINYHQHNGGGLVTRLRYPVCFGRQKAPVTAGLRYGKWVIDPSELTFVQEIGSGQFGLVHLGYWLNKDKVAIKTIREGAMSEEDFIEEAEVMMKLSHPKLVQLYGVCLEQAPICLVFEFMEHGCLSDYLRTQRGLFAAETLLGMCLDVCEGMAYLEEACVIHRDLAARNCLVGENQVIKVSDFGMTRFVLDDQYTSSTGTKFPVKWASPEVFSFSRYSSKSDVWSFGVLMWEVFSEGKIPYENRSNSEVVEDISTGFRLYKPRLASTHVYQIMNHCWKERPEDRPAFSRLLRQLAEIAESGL
Conditions: ITK; 1 μM; read-out: % control.

Assay [5] has as its target T5, panel of 468 kinases (Homo sapiens, UniProt O75716).
T5 construct: purchased KINOMEscan (ScanMAX) service
Conditions: STK16; 1 μM; read-out: % control.

Assay [6] addresses T6, panel of 468 kinases (Homo sapiens, UniProt Q8TF76).
T6 construct: purchased KINOMEscan (ScanMAX) service
T6 sequence (Q8TF76 1-798): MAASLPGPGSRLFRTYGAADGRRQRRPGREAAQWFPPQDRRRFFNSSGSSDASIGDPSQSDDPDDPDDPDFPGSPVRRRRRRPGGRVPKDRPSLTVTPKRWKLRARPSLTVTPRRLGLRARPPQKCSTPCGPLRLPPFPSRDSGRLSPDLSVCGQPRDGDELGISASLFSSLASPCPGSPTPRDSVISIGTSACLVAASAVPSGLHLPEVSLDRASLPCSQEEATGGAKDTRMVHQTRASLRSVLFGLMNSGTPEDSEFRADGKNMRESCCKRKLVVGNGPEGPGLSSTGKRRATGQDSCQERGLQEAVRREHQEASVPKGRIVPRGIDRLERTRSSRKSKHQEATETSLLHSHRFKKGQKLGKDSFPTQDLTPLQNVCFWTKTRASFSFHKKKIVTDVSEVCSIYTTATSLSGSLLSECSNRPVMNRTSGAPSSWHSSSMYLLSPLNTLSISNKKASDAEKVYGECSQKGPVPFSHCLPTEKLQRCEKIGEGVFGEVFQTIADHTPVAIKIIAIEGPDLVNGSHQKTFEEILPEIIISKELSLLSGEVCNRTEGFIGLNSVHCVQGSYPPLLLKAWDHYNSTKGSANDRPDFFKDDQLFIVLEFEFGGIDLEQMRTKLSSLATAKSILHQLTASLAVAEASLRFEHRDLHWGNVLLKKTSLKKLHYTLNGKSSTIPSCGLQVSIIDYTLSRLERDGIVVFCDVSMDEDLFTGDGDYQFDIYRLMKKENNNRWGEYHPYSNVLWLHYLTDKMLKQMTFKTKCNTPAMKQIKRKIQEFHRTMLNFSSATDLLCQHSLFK
As to conditions: HASPIN; 1 μM; read-out: % control.

Assay [7] has as its target T7, panel of 468 kinases (Homo sapiens, UniProt P06241).
T7 construct: purchased KINOMEscan (ScanMAX) service
Conditions: FYN; 1 μM; read-out: % control.

For assay [8], the target named is T8, panel of 468 kinases (Homo sapiens, UniProt P80192).
T8 construct: purchased KINOMEscan (ScanMAX) service
Conditions: MLK1; 1 μM; read-out: % control.

Assay [9] concerns the target T9, panel of 468 kinases (Homo sapiens, UniProt O60674).
T9 construct: purchased KINOMEscan (ScanMAX) service
Conditions: JAK2(JH1domain-catalytic); 1 μM; read-out: % control.

T8 sequence (P80192 whole entry): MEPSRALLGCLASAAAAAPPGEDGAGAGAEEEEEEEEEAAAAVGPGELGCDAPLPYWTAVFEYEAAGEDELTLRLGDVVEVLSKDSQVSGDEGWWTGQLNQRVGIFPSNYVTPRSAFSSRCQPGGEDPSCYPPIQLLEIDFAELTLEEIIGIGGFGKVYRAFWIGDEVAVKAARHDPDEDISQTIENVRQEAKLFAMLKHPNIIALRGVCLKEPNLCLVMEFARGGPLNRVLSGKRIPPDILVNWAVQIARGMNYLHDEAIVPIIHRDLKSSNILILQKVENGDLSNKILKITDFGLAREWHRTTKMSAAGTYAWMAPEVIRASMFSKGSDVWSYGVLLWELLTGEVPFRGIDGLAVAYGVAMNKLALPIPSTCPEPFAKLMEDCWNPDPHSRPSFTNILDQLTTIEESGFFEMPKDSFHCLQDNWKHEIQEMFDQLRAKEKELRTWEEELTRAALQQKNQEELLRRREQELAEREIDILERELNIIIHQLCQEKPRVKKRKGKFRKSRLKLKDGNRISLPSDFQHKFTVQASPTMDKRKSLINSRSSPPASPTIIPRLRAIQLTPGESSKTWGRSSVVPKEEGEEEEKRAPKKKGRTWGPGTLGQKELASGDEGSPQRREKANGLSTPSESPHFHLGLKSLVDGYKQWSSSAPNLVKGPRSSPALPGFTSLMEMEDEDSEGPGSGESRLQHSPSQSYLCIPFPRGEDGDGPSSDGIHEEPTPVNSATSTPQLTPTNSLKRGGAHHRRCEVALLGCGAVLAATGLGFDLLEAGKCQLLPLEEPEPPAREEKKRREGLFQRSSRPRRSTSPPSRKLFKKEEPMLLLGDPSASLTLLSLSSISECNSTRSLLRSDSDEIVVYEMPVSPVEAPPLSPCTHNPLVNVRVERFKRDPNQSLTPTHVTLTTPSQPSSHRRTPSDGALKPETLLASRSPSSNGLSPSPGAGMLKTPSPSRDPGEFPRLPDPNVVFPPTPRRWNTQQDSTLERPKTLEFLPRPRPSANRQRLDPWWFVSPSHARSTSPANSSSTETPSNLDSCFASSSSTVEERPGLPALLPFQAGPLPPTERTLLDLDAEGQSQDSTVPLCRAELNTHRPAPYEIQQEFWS
T9 sequence (O60674 whole entry): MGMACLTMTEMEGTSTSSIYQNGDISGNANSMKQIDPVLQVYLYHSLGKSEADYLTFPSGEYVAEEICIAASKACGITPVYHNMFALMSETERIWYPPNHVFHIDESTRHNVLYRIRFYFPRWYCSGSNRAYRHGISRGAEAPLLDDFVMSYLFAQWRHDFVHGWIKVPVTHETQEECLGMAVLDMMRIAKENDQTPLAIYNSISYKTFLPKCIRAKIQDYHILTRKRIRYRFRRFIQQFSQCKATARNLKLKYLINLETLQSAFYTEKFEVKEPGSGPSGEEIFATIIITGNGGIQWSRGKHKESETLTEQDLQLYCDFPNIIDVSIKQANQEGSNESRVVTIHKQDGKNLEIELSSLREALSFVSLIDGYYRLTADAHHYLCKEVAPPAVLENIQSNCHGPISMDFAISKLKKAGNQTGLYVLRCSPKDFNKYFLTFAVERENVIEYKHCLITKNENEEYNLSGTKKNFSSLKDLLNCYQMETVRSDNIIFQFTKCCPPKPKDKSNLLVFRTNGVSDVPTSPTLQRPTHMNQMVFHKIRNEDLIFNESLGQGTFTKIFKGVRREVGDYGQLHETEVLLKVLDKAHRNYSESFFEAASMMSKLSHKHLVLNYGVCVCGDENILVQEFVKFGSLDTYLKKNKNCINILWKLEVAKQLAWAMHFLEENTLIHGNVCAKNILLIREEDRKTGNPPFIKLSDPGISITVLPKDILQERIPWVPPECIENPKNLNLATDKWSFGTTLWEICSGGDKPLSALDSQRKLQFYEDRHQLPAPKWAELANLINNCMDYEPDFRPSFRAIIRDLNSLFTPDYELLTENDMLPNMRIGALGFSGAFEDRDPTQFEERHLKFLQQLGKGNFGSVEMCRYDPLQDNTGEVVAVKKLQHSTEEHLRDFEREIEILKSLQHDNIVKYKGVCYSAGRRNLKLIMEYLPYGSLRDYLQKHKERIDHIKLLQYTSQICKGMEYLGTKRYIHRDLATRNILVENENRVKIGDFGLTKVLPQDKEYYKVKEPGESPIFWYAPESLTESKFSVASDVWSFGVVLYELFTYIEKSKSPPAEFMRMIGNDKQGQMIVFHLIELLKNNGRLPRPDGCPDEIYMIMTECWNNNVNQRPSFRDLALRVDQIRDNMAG
T1 sequence (Q86UE8 whole entry): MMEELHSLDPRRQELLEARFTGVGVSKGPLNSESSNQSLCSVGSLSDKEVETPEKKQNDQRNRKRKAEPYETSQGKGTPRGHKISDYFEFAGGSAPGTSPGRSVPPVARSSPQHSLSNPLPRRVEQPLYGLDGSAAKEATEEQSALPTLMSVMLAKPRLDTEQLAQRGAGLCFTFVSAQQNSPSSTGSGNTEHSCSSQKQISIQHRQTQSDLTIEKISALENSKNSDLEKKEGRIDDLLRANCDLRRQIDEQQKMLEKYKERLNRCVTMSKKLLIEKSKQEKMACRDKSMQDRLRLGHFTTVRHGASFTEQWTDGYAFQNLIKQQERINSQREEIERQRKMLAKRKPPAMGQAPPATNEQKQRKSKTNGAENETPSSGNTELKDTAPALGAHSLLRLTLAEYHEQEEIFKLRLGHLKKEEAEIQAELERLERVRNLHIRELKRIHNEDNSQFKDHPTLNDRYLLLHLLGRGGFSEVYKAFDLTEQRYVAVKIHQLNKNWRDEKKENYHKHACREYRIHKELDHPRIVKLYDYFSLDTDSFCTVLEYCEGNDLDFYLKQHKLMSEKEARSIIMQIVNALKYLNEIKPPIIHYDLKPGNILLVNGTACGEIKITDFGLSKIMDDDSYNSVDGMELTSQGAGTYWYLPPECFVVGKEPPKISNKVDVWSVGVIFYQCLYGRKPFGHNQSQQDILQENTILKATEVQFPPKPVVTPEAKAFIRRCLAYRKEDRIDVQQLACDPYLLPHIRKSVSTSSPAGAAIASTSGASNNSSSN
T7 sequence (P06241 whole entry): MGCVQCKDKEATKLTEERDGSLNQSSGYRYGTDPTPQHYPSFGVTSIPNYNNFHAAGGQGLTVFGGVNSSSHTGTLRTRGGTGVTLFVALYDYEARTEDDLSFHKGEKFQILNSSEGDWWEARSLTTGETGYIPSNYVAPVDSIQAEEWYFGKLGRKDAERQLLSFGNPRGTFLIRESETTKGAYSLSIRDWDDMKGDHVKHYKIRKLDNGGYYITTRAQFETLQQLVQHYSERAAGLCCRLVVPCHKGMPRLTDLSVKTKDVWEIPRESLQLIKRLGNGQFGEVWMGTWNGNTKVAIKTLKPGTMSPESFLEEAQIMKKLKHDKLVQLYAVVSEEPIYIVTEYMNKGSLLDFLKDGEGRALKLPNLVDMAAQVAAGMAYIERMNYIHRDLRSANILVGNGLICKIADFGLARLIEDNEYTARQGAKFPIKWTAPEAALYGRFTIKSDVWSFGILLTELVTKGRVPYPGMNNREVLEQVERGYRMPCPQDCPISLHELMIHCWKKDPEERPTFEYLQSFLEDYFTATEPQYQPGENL
T5 sequence (O75716 whole entry): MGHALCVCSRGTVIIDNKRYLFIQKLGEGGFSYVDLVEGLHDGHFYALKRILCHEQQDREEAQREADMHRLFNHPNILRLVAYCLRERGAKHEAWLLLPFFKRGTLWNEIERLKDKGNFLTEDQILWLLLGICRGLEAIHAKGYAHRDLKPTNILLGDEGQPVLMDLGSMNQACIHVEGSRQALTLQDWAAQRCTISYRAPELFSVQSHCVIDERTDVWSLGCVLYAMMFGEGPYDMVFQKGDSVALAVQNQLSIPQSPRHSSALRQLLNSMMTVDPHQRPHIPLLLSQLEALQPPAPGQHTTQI
T3 sequence (P45983 whole entry): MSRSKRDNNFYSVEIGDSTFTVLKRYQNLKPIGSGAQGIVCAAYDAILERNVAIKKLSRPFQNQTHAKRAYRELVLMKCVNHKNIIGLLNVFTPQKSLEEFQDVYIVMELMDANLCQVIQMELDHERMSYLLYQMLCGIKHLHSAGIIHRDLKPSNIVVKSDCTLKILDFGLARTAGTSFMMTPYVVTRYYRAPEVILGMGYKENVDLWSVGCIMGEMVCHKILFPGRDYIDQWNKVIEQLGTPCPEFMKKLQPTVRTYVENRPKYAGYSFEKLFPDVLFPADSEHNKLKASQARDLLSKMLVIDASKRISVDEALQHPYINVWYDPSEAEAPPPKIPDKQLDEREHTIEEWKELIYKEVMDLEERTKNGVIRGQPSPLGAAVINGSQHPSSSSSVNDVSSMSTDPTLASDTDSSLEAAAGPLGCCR

With `CNc1nc(Nc2ccc(S(=O)(=O)N3CCC(N4CCOCC4)CC3)cc2OC)nc2[nH]cc(Cl)c12` [Compound 12, 5-chloro-N2-(2-methoxy-4-((4-morpholinopiperidin-1-yl)sulfonyl)phenyl)-N4-methyl-7H-pyrrolo[2,3-d]pyrimidine-2,4-diamine], the remaining binding at 1 µM worked out at 100% at panel of 468 kinases [1]; 97% on panel of 468 kinases [2]; 11% at panel of 468 kinases [3]; 92% at panel of 468 kinases [4]; 100% on panel of 468 kinases [5]; 29% on panel of 468 kinases [6]. For the same molecule, the remaining binding at 1 µM at panel of 468 kinases [7] was 100%; at panel of 468 kinases [8], 100%; at panel of 468 kinases [9] it was 78%.

In the case of `CNc1nc(Nc2ccc(P3(=O)CCN(C4CCOCC4)CC3)cc2OC)nc2[nH]cc(Cl)c12` [Compound 77, 4-(4-((5-chloro-4-(methylamino)-7H-pyrrolo[2,3-d]pyrimidin-2-yl)amino)-3-methoxyphenyl)-1-(tetrahydro-2H-pyran-4-yl)-1,4-azaphosphinane 4-oxide], the remaining binding at 1 µM at panel of 468 kinases [1] is 100%; on panel of 468 kinases [2], 100%; at panel of 468 kinases [3], 0.65%; on panel of 468 kinases [4], 97%; at panel of 468 kinases [5] it was 93%; on panel of 468 kinases [6], 35%. In addition, the results for the remaining binding at 1 µM on panel of 468 kinases [7], at panel of 468 kinases [8] and on panel of 468 kinases [9] were 95%, 98% and 58%, respectively.

On to `CNc1nc(Nc2ccc(C(=O)N3CCC(N4CCOCC4)CC3)c3c2OCO3)nc2[nH]cc(Cl)c12` [Compound 75, (7-((5-chloro-4-(methylamino)-7H-pyrrolo[2,3-d]pyrimidin-2-yl)amino)benzo[d][1,3]dioxol-4-yl)(4-morpholinopiperidin-1-yl)methanone], for which the remaining binding at 1 µM was 100% at panel of 468 kinases [1]; 100% at panel of 468 kinases [2]; 0.1% at panel of 468 kinases [3]; 100% on panel of 468 kinases [4]; 71% at panel of 468 kinases [5]; 25% on panel of 468 kinases [6]. For the same molecule, the remaining binding at 1 µM on panel of 468 kinases [7] was 100%; on panel of 468 kinases [8], 91%; at panel of 468 kinases [9], 24%.
